This note sets out measurements from ChEMBL document CHEMBL1201862, “PubChem BioAssay data set” (2004).

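Five compound concentrations were applied to cells in 96-well plates for 48 hours; endpoints were derived by simple linear interpolation of the resulting dose-response curve. The concentration for 50% growth inhibition is given as GI50.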 The source made the active and inactive calls. Rule as the data show it: active = GI50 up to about 1.1 µM and inactive = higher.

Test systems include A498; CCRF-CEM; HCC 2998; HCT-15; IGROV-1; K562; MCF7; MOLT-4; NCI-H226; OVCAR-5; SK-MEL-5; U-251; UACC-257; UACC-62; ACHN; M14; SR; TK-10.
Holding throughout (assay): growth of human tumour cells (NCI), 48 h

`O=P(NCCCO)(OCc1ccccc1)N(CCCl)CCCl` (stereo not given): the GI50 in the assay with A498 was > 100 µM (inactive); in the assay with CCRF-CEM, > 100 µM (inactive); in the assay on HCC 2998 it was > 100 µM (inactive); in the assay on HCT-15, above 100 µM; in the assay with IGROV-1, > 74.5 µM (inactive); with K562 it was > 100 µM (inactive). Further, the GI50 with MCF7, with MOLT-4, in the assay on NCI-H226, in the assay on OVCAR-5, with SK-MEL-5 and in the assay on U-251 was > 100 µM (inactive) in each case. Further, the GI50 with UACC-257 and with UACC-62 was > 100 µM (inactive) in each case.
Turning to `O=C(C(O)c1cn(Cc2ccccc2)c2ccccc12)N1CCCCC1` (stereo not given), the GI50 was > 100 µM (inactive) in the assay with A498; 53.5 µM (inactive) in the assay with ACHN; 67.1 µM (inactive) with CCRF-CEM; > 100 µM (inactive) with HCC 2998; 76.4 µM with HCT-15; 30.4 µM (inactive) with IGROV-1. Besides, the GI50 was 30.2 µM (inactive) with K562; > 100 µM (inactive) in the assay with M14; 39.9 µM (inactive) in the assay on MOLT-4; 34.4 µM (inactive) in the assay on NCI-H226; > 100 µM (inactive) in the assay on OVCAR-5; 30.1 µM (inactive) with SK-MEL-5. For the same molecule, the GI50 in the assay with SR was > 100 µM (inactive); in the assay on TK-10, > 10 µM (inactive); in the assay on U-251 it was > 10 µM (inactive); in the assay with UACC-257, 48.9 µM (inactive); with UACC-62, 95.1 µM (inactive).
As to `CC(=O)NNc1nc(C)c(C(=O)NNC(=O)C(=O)Nc2c(C)cccc2C(C)C)s1`, the GI50 with A498 is 51.4 µM (inactive); with ACHN, 60.1 µM (inactive); with CCRF-CEM, 34.5 µM (inactive); in the assay on HCC 2998, > 100 µM (inactive); in the assay with HCT-15, 60.3 µM; with IGROV-1 it was > 100 µM (inactive). Also, the GI50 in the assay on K562 was 46.7 µM (inactive); with M14, > 100 µM (inactive); in the assay with MOLT-4, 44.4 µM (inactive); with NCI-H226, 79.4 µM (inactive); with OVCAR-5, > 100 µM (inactive); in the assay with SK-MEL-5 it was 95.1 µM (inactive). Moreover, the GI50 in the assay on SR was 40 µM (inactive); in the assay on TK-10, > 100 µM (inactive); in the assay with U-251, 5.97 µM (inactive); in the assay with UACC-257, 64.3 µM (inactive); in the assay with UACC-62, 59.7 µM (inactive).
As for `CC1(c2ccc[n+](Cc3ccccc3)c2)OCCO1`, the GI50 in the assay on A498 was > 100 µM (inactive); in the assay on ACHN, > 100 µM (inactive); in the assay on CCRF-CEM, > 100 µM (inactive); in the assay with HCC 2998 it was > 100 µM (inactive); with HCT-15, above 100 µM; in the assay on IGROV-1, > 100 µM (inactive). Also, the GI50 with K562, with M14, with MOLT-4, in the assay on NCI-H226, in the assay with OVCAR-5 and in the assay with SK-MEL-5 was > 100 µM (inactive) in each case. The GI50 with SR, in the assay on TK-10, in the assay with U-251, with UACC-257 and with UACC-62 was > 100 µM (inactive) in each case.
For the molecule `Cc1ccccc1NC(=O)c1c(C)oc2c1C(=O)c1ccccc1C2=O`, the GI50 in the assay with A498 is 63.5 µM (inactive); in the assay with ACHN, 36.9 µM (inactive); in the assay on CCRF-CEM it was 19.4 µM (inactive); with HCC 2998, 51.5 µM (inactive); in the assay with HCT-15, 32.1 µM; with IGROV-1 it was > 71.9 µM (inactive). Moreover, the GI50 in the assay with K562 was 22.4 µM (inactive); in the assay on M14, 20.9 µM (inactive); in the assay on MOLT-4 it was 20.1 µM (inactive); in the assay with NCI-H226, > 38.7 µM (inactive); in the assay on OVCAR-5, > 100 µM (inactive); in the assay with SK-MEL-5, 13.2 µM (inactive). For the same molecule, the GI50 is 26.1 µM (inactive) in the assay on SR; > 100 µM (inactive) in the assay on TK-10; 7.89 µM (inactive) with U-251; 21.4 µM (inactive) in the assay with UACC-257; 22 µM (inactive) in the assay on UACC-62.
On to `COC(=O)C1=CO[C@@H](OC2CC(CO)C(O)C(O)C2O)[C@@H]2[C@@H](C)[C@@H](OC(=O)/C=C/c3ccccc3)[C@@H](O)[C@H]12.COC(=O)C1=CO[C@@H](OC2CC(CO)C(O)C(O)C2O)[C@@H]2[C@@H](C)[C@@H](OC(=O)c3ccccc3)[C@@H](O)[C@H]12` (stereo not given in full), for which the GI50 in the assay on A498, in the assay with ACHN, in the assay with CCRF-CEM, with HCC 2998, with IGROV-1 and with K562 was > 100 µM (inactive) throughout. Also, the GI50 with M14 was > 100 µM (inactive); in the assay on MOLT-4, > 100 µM (inactive); in the assay on NCI-H226 it was > 100 µM (inactive); with OVCAR-5, > 100 µM (inactive); with SK-MEL-5 it was > 100 µM (inactive); in the assay on SR, 66.7 µM (inactive). For the same molecule, the GI50 in the assay on TK-10, in the assay on U-251, in the assay with UACC-257 and in the assay on UACC-62 was > 100 µM (inactive) each time.
`O=C1C=C(Nc2ccc(S(=O)(=O)Nc3ncccn3)cc2)c2ccccc2C1=O`: the GI50 was 30.3 µM (inactive) in the assay with A498; 27 µM (inactive) with ACHN; 26.3 µM (inactive) in the assay on CCRF-CEM; 18 µM (inactive) with HCC 2998; 22.5 µM with HCT-15; 26.5 µM (inactive) with IGROV-1. Besides, the GI50 was 15.6 µM (inactive) with K562; 18.2 µM (inactive) in the assay on M14; 48.5 µM (inactive) in the assay with MOLT-4; 28.4 µM (inactive) in the assay with NCI-H226; 19.5 µM (inactive) in the assay with OVCAR-5; 18.2 µM (inactive) with SK-MEL-5. In addition, the GI50 with SR was 8.53 µM (inactive); in the assay on TK-10, 37.4 µM (inactive); with U-251, 17.6 µM (inactive); with UACC-257, 20.1 µM (inactive); in the assay with UACC-62 it was 17.9 µM (inactive).
As to `CCCNC1=C(C(=O)OCC)C(=O)CO1`, the GI50 is > 100 µM (inactive) in the assay on A498; > 100 µM (inactive) in the assay with ACHN; > 100 µM (inactive) with CCRF-CEM; > 100 µM (inactive) with HCC 2998; above 100 µM in the assay on HCT-15; > 100 µM (inactive) with IGROV-1. Moreover, the GI50 with K562, in the assay on M14, with MOLT-4, with NCI-H226, with OVCAR-5 and in the assay with SK-MEL-5 was > 100 µM (inactive) in each case. The GI50 in the assay with SR, with TK-10, with U-251, in the assay with UACC-257 and in the assay with UACC-62 was > 100 µM (inactive) throughout.
For the molecule `O=C1NC(=S)NC(=O)C1=CC1CC1`, the GI50 is > 100 µM (inactive) with A498; > 100 µM (inactive) in the assay with ACHN; > 100 µM (inactive) in the assay with CCRF-CEM; > 100 µM (inactive) with HCC 2998; above 100 µM in the assay with HCT-15; > 100 µM (inactive) in the assay with IGROV-1. Further, the GI50 in the assay on K562, in the assay on M14, with MOLT-4, with NCI-H226, with OVCAR-5 and in the assay on SK-MEL-5 was > 100 µM (inactive) each time. For the same molecule, the GI50 in the assay on SR, in the assay on TK-10, in the assay on U-251, in the assay with UACC-257 and in the assay on UACC-62 was > 100 µM (inactive) in each case.
Consider `CCOC(=O)C1=C(OC(OCC)C(C)[Se]c2ccccc2)CCC1` (stereo not given), for which the GI50 in the assay with A498 was > 100 µM (inactive); with ACHN it was 26.9 µM (inactive); in the assay with CCRF-CEM, 16.5 µM (inactive); with HCC 2998 it was 78.3 µM (inactive); with HCT-15, 17.5 µM; with IGROV-1, 26.4 µM (inactive). Further, the GI50 in the assay on K562 is 42.8 µM (inactive); with M14, 20.5 µM (inactive); with MOLT-4, 15.9 µM (inactive); in the assay on NCI-H226 it was 16.6 µM (inactive); with OVCAR-5 it was 51.2 µM (inactive); in the assay with SK-MEL-5, 19.1 µM (inactive). For the same molecule, the GI50 in the assay on SR was 6.4 µM (inactive); in the assay on TK-10, > 100 µM (inactive); in the assay with U-251, 6.78 µM (inactive); with UACC-257, 39.7 µM (inactive); in the assay on UACC-62 it was 15.2 µM (inactive).
On to `c1cc2c3c(c1)c1cc4c(cc1c[n+]3CC2)OCO4` [ANHYDROLYCORINIUM CHLORIDE], for which the GI50 in the assay on A498 is 2.37 µM (inactive); in the assay with CCRF-CEM it was 3.35 µM (inactive); in the assay on HCC 2998 it was 2.75 µM (inactive); in the assay with HCT-15, above 164 µM; in the assay with IGROV-1 it was 4.02 µM (inactive); with K562, 4.47 µM (inactive). Also, the GI50 with MCF7 is 6.25 µM (inactive); in the assay on MOLT-4, 1.25 µM (inactive); in the assay on NCI-H226, 1.25 µM (inactive); in the assay with OVCAR-5, 2.85 µM (inactive); in the assay on SK-MEL-5, 3.79 µM (inactive); with U-251, 0.811 µM (active). Further, the GI50 was 5.28 µM (inactive) in the assay with UACC-257 and 5.85 µM (inactive) with UACC-62.
As to `C[C@]12CCC(=O)C=C1CC[C@@H]1[C@@H]2[C@@H](O)C[C@@]2(C)[C@H]1CC[C@]2(O)C(=O)COC(=O)CCC1CCCC1` [HYDROCORTISONE CYPIONATE], the GI50 in the assay with A498 was > 100 µM (inactive); with ACHN, > 100 µM (inactive); in the assay with CCRF-CEM it was 95.9 µM (inactive); with HCC 2998 it was > 100 µM (inactive); in the assay with HCT-15, above 100 µM; in the assay with IGROV-1, > 100 µM (inactive). In addition, the GI50 in the assay on MOLT-4 was > 100 µM (inactive); with NCI-H226, 0.0728 µM (active); in the assay with OVCAR-5 it was 0.0881 µM (active); in the assay with SK-MEL-5, > 100 µM (inactive); with SR, > 100 µM (inactive); in the assay with TK-10 it was > 100 µM (inactive). In addition, the GI50 in the assay on U-251, in the assay on UACC-257 and in the assay with UACC-62 was > 100 µM (inactive) throughout.
